This is an account of results in patent EP2135604A1, “INFUSION PREPARATION FOR CANCER PATIENT” (Matsui, Hirofumi, priority 2007, dated 2008).

Assay [1] concerns rat stomach cancer cell line (RGK-37). Kind of assay: Culture in glucose-free, 3% glutamine medium, observation under a microscope. Type of assay: cell-based. To be noted: RGK-37 tumor cells, absence of glucose, 120 hours. How it is done:
(§1) A rat stomach mucous membrane cell line (RGM) and a rat stomach cancer cell line (RGK-37) were cultured in Gibco#11330-032 DMEM/F12 medium and Sigma#D6421 DMEM/F12 medium, respectively. Each culture was cultured in the absence of glucose and in the presence of 3% glutamine for 120 hours. Subsequently, the cells were observed under a microscope.

The test system of assay [2] is rat stomach mucous membrane cell line (RGM). Described as above. Type of assay: cell-based. Particulars: RGM non-tumor cells, absence of glucose, 120 hours. How it is done:
as §1

Assay [3] has as its system rats infected with Helicobacter pylori. Particulars: reported by Patent Document 4; cited from earlier work.
The test system of assay [4] is rat stomach mucous membrane cells. Kind of assay: Chemical carcinogenesis with L-glutamine added to the growth medium. Format: cell-based. Particulars: addition of L-glutamine to the growth medium.
Assay [5] has as its system rat stomach cancer cell line (RGK-37). Kind of assay: BrdU uptake (ELISA) at different glucose concentrations in the growth medium. Type of assay: cell-based. Particulars: medium with 0, 0.3 or 1.3 g/L of glucose, 1%FBS, 1% L-glutamine, 24 hours, relative to 3 g/L glucose (= 1). How it is done: (§2) A rat stomach mucous membrane cell line (RGM) and a rat stomach cancer cell line (RGK-37) were cultured in Gibco#11330-032 DMEM/F12 medium and L-glutamine-free Sigma#D6421 DMEM/F12 medium, respectively. Each culture was supplemented with 10% FBS and was cultured during the logarithmic growth phase. The growth medium was then replaced with a growth medium containing 0, 0.3 or 1.3 g/L of glucose and supplemented with 1%FBS and 1% L-glutamine. After 24 hours of culturing, bromodeoxyuridine (BrdU) was added to each culture. 2 hours after the addition of BrdU, the BrdU uptake was measured by ELISA. The BrdU uptake for each culture is shown in Fig. 1 relative to the uptake obtained at a glucose concentration of 3 g/L (= 1).
(An ELISA detects its analyte on a solid surface through an enzyme-linked reagent.)

The test system of assay [6] is rat stomach mucous membrane cell line (RGM). The assay is described as above. Type of assay: cell-based. Particulars: medium with 0, 0.3 or 1.3 g/L of glucose, 1%FBS, 1% L-glutamine, 24 hours, relative to 3 g/L glucose (= 1). How it is done:
as §2

Assay [7] has as its system normal stomach mucous cell line of rat. The experiment in a line: Protein levels at decreased glucose levels in the culture medium. Type of assay: cell-based.
The test system of assay [8] is tumor cell lines of rat and human stomach cancer. The assay is described as above. To be noted: rat stomach cancer tumor cell line; decreasing glucose levels in the culture medium. Type of assay: cell-based.
For assay [9] the test system is unchanged. The assay is described as above. To be noted: human stomach cancer tumor cell line; decreasing glucose levels in the culture medium. Type of assay: cell-based.

For the compound `NC(=O)CC[C@H](N)C(=O)O` [L-glutamine], the “cell survival / apoptosis (microscope)” value was “apoptosis is induced” in [1] and “apoptosis was induced” in [1] (listed as glutamine). Moreover, the entries for the “cell survival (microscope)” value in assay [2] and in [2] (listed as glutamine) were “can survive” and “survived”, respectively. Further, the “onset of legions resembling stomach cancer” value in assay [3] is given as “ability to suppress the onset of legions resembling stomach cancer”. Further, the chemical carcinogenesis result in assay [4] was “suppresses chemical carcinogenesis”.

Consider `OC[C@H]1OC(O)[C@H](O)[C@@H](O)[C@@H]1O` (some centres unmarked) [glucose], for which the BrdU uptake result in assay [5] is listed as “decreased relatively with decreasing concentrations of glucose”; in [6], “relatively constant”. Besides, the protein levels entry in [7] was “no changes”; in assay [8], “decreased protein levels”; in assay [9], “decreased protein levels”.
